Test results taken from patent EP3177150B1, “A COMBINATION OF VITAMIN D AND ZINC AND ITS USE” (Société des Produits Nestlé S.A., priority 2014, dated 2016).
Read-outs that look alike come from different tables or passages of the source.

Tests used:
[1] = tested on: insulin resistant L6 differentiated muscle cells; assay: glucose uptake (radiolabelled 2-deoxy-D-glucose) in insulin resistant L6 differentiated muscle cells (Palmitate exposure); format: cell-based
Method: Each condition was tested in triplicate.

[2] = tested on: L6 differentiated muscle cells
Method: The effect of zinc and vitamin D on glucose uptake in L6 differentiated muscle cells was measured after short (2hours) and long term (24 hours) incubations.
Ingredient J was tested at 10 µM and 20 µM.
Ingredient K was tested at 1 nM and 10 nM.
Ingredient J was prepared in water and stored at -20°C (mother solution at 2 M) and ingredient K was prepared in DMSO and stored at -20°C (mother solution at 0.01 mM). The day of the experiment, the ingredients were diluted in a serum-free medium (DMEM) containing 5.5 mM D-glucose to achieve the final tested concentrations and 0.1 % of DMSO.
L6 myoblasts were maintained in growth medium or DMEM 25 mM glucose supplemented with 10 % of fetal bovine serum (FBS), 100 U/ml penicillin, and 100 µg/ml streptomycin. For the glucose uptake study, cells were grown on 24 well plates at a density of 1000-1500 cells/well in 0.5 mL of growth medium. Five days after plating, the differentiation induction into myotubes was carried out in DMEM 25 mM glucose containing 2 % FBS, 100 U/ml penicillin, and 100 µg/ml streptomycin at 37°C under a 5 % CO2 atmosphere. The culture medium was changed every other day.
For short term incubation (2 hours), the day prior to the test, the culture medium was replaced by DMEM 25 mM D-glucose containing 0.25 % BSA, 100 U/ml penicillin, and 100 µg/ml streptomycin. The day after and prior to the test, cells were washed and incubated in DMEM containing 5.5 mM D-glucose, 0.34 % BSA in the presence of the ingredients for 2 hours with and without insulin (100 nM).
For long term incubation (24 hours), the day prior to the test, cells were pre-incubated in the presence of the tested ingredients (ingredient J, K, or a combination thereof) for 18 hours in DMEM 25 mM D-glucose containing 0.25 % BSA, 100 U/ml penicillin, and 100 µg/ml streptomycin in the absence of insulin. The day after and prior to the test, cells were washed and incubated in the presence of the tested ingredients for 6 hours more in DMEM containing 5.5 mM D-glucose, 0.34 % BSA without insulin. Insulin (100 nM) was added for the last 2 hours.
In normal and physiopathological conditions, glucose uptake was measured by incubation of the cells with radiolabelled 2-deoxy-D-[1,2 3H] glucose for 15 min. Glucose uptake was arrested by two washing steps in ice-cold PBS 1X. Then cells were solubilized in 0.1 N NaOH for 30 min. Cell associated radioactivity was then counted and protein quantification was determined using the coloric Lowry method.
Each condition was tested in triplicate. Insulin (100 and 1000 nM / 2 hours) and Metformin (1.5 mM / 24 hours) were used as positive controls.
Results are expressed in pmol glucose incorporated / min / mg protein and in % of control or basal condition or insulin 0 nM (100 %).
A statistical analysis allowing multiple comparisons (one way ANOVA followed by a Dunnett's t test; * P < 0.05, **P < 0.01, ***P < 0.001 versus control condition) was carried out.

[3] = insulin resistant cells (Palmitate 6 hours), short term incubation (2 hrs), absence of insulin
[4] = insulin resistant cells (Palmitate 6 hours), short term incubation (2 hrs), presence of insulin (100 nM)
[5] = insulin resistant cells, long term incubation (24 hrs), absence of insulin
[6] = insulin resistant cells, long term incubation (24 hrs), presence of insulin (100 nM, last 2 hours)
[7] = long term incubation (24 hrs), absence of insulin
[8] = long term incubation (24 hrs), presence of insulin (100 nM, last 2 hours)
[9] = short term incubation (2 hrs), absence of insulin, J 10 and 20 µM, K 1 and 10 nM, versus control
[10] = short term incubation (2 hrs), presence of insulin (100 nM), J 10 and 20 µM, K 1 and 10 nM

Compound | glucose uptake [1, 3] | glucose uptake [1, 4] | glucose uptake [1, 5] | glucose uptake [1, 6] | glucose uptake [2, 7] | glucose uptake [2, 8] | glucose uptake [2, 9] | glucose uptake [2, 10]
[Cl-].[Cl-].[Zn+2] [ingredient J, zinc chloride] | no increase or a slight but not significant increase | no increase or a slight but not significant increase | no increase or a slight but not significant increase | no increase or a slight but not significant increase | no increase or a slight but not significant increase | no increase or a slight but not significant increase | no increase or a slight but not significant increase | no increase or a slight but not significant increase
C=C1/C(=C\C=C2/CCC[C@]3(C)[C@@H]([C@H](C)CCCC(C)(C)O)CC[C@@H]23)C[C@@H](O)C[C@@H]1O [ingredient K, 1,25-dihydroxyvitamin D3] | significant increases | did not increase insulin-induced glucose uptake | no increases or a slight but not significant increase | No increase or a slight but not significant increase | no increases or a slight but not significant increase | No increase or a slight but not significant increase | significant increases | did not increase insulin-induced glucose uptake
